Measurements published in patent US20250032490A1, “THERAPEUTIC REGIMENS FOR TREATMENT OF PAROXYSMAL NOCTURNAL HEMOGLOBINURIA” (Achillion Pharmaceuticals, Inc., priority 2017, published 2025).

Tests used:
[1] = test system: C3 fragment deposition on artificial PNH cells; experiment: C3 fragment deposition on artificial PNH cells (flow cytometry); type: cell-based; settings: 32% acidified C5-depleted normal human serum; read-out: IC50, inhibition of C3 fragment deposition on artificial PNH cells
Procedure: C5-depleted normal human serum (C5-Dpl NHS), gelatin veronal buffer (GVB) without Ca^++ and Mg^++ (GVB^0), 100 mM MgCl2+100 mM EGTA (MgEGTA) were obtained from Complement Technology Inc. (Tyler, TX). GVB^0·MgEGTA was prepared by mixing GVB^0 and 100 mM MgEGTA in a 9:1 ratio. FITC-conjugated anti-C3c antibody (cat #ab4212) and Alexa Fluor® 647-conjugated anti human CD59 antibody (cat #:ab187769) were purchased from Abcam (Cambridge, MA). […] Ferrone, and F. Mercuriali, The Action of Two Sulfhydryl Compounds on Normal Human Red Cells. Relationship to Red Cells of Paroxysmal Nocturnal Hemoglobinuria. Blood, 1965. 25: p. 502-10). After AET treatment, artificial PNH erythrocytes were centrifuged, supernatant was aspirated and cells were thoroughly washed with phosphate buffered saline (PBS) 3 times followed by washing with GVB^0 buffer ([…]) for additional 3 times. […] C3 fragment deposition on the surface of the erythrocytes was assessed by flow cytometry with BD Accuri C6 cytometer (BD Biosciences, San Jose, CA). […] IC50 values from each experiment were determined by curve-fitting of experimental data (the % C3 fragment-positive cells at increasing concentrations of inhibitor) to the four-parameter sigmoidal dose-response equation using non-linear regression analysis (Prism Software, GraphPad, La Jolla, CA).

[2] = test system: PNH Type III red blood cells; experiment: Phase 2 study in PNH subjects: PNH red blood cell (Type III) percentage; type: in vivo, human; settings: Compound 1 100 mg TID + IV eculizumab
Procedure: (§1) The starting dose of compound 1 is based upon group assignment. The Group 1 dose is 100mg three times daily (TID). The Group 2 dose is 150 mg TID. The Group 3 dose is 200 mg TID. The Group 4 dose will receive the optimal dose determined from Groups 1-3.
(§2) All doses are taken approximately 15-30 minutes after completion of a meal or snack.
(§3) This will be followed by a long-term extension phase.
(§4) 2 subjects in the first dose level of 100 mg TID have been completed and data collected through 4 weeks. Data collected include lactate dehydrogenase (LDH) levels, hemoglobin levels, reticulocytes, PNH red blood cells (Type III) percentage, C3 Fragment Deposition percentage, and bilirubin levels and their changes from baseline.
Measuring the percentage of PNH Type III red blood cells is a pharmacodynamic marker that is measured by flow cytometry, which provides information on cell size, shape, and percentage of a type of cell. This assay determines whether CD55 and CD59 are missing from the surface of red blood cells. These proteins help protect normal cells from hemolysis. PNH Type III cells are extremely sensitive to the complement system and hemolysis. PNH Type III cell percentage is measured from plasma drawn on Day 1, Week 2, and Week 4 (FIGS. 16A & 16B and Table 18).

[3] = test system: C3 fragment deposition on rabbit erythrocytes; experiment: C3 fragment deposition on rabbit erythrocytes (flow cytometry); type: cell-based; settings: Oryctolagus cuniculus, Erythrocyte; 20% C5-depleted normal human serum; read-out: IC50, inhibition of C3 fragment deposition on rabbit erythrocytes
Procedure: Rabbit erythrocytes, C5-depleted normal human serum (C5-Dpl NHS), gelatin veronal buffer (GVB) without Ca^++ and Mg (GVB^0), 100 mM MgCl2+100 mM EGTA (MgEGTA) were obtained from Complement Technology Inc. (Tyler, TX). GVB^0·MgEGTA was prepared by mixing GVB^0 and 100 mM MgEGTA in a 9:1 ratio. FITC-conjugated anti-C3c antibody (cat#ab4212) and Alexa Fluor® 647-conjugated anti human CD59 antibody (cat#: ab187769) were purchased from Abcam (Cambridge, MA).
Reactions were incubated at 37° C. for 15 minutes, the reactions were quenched by addition of EDTA at a final concentration of 20 mM. Cells were stained with a FITC-conjugated anti-C3c antibody at a dilution of 1:200 and C3 fragment deposition on the surface of rabbit erythrocytes was assessed by flow cytometry with BD Accuri C6 cytometer (BD Biosciences, San Jose, CA). Forward and side scatter parameters were used to gate intact erythrocytes. Controls included cells labeled with FITC-conjugated antibody isotype control. IC50 values from each experiment were determined by curve-fitting of experimental data (the % C3 fragment-positive cells at increasing concentrations of inhibitor) to the four-parameter sigmoidal dose-response equation using non-linear regression analysis (Prism Software, GraphPad, La Jolla, CA).

[4] = Phase 2 study in PNH subjects: reticulocyte count; type: in vivo, human; settings: Compound 1 100 mg TID + IV eculizumab
Procedure: as §1, §2, §3, §4
A reticulocyte count is a pharmacodynamic marker that is measured from blood drawn on Day 1, Week 1, Week 2, and Week 4 (FIGS. 15A & 15B and Table 17). A reticulocyte count measures the number of immature red blood cells in a blood sample. People who have PNH may have elevated reticulocyte counts because their bone marrow is producing a lot of new red blood cells.

[5] = subject 003-001, DAY 1 (baseline)
[6] = subject 003-002, DAY 1 (baseline)

CC(=O)c1nn(CC(=O)N2C[C@H](F)C[C@H]2C(=O)Nc2cccc(Br)n2)c2ccc(-c3cnc(C)nc3)cc12 [Compound 1, (2S,4R)-1-(2-(3-acetyl-5-(2-methylpyrimidin-5-yl)-1H-indazol-1-yl)acetyl)-N-(6-bromopyridin-2-yl)-4-fluoropyrrolidine-2-carboxamide]
IC50 [1]: 27 nM
PNH RBC (TYPE III) Observed [2, 5]: 41%
PNH RBC (TYPE III) CFB (change from baseline) ([2]; subject 003-001, DAY 1): 0%
PNH RBC (TYPE III) CFB (change from baseline) ([2]; subject 003-001, WEEK 2): 21%
PNH RBC (TYPE III) Observed ([2]; subject 003-001, WEEK 2): 62%
PNH RBC (TYPE III) CFB (change from baseline) ([2]; subject 003-001, WEEK 4): 29%
PNH RBC (TYPE III) Observed ([2]; subject 003-001, WEEK 4): 70%
PNH RBC (TYPE III) Observed [2, 6]: 50%
PNH RBC (TYPE III) CFB (change from baseline) ([2]; subject 003-002, DAY 1): 0%
PNH RBC (TYPE III) CFB (change from baseline) ([2]; subject 003-002, WEEK 2): 10%
PNH RBC (TYPE III) Observed ([2]; subject 003-002, WEEK 2): 60%
PNH RBC (TYPE III) CFB (change from baseline) ([2]; subject 003-002, WEEK 4): 18%
PNH RBC (TYPE III) Observed ([2]; subject 003-002, WEEK 4): 68%
IC50 [3]: 96 ± 21 nM
RETICULOCYTES Observed [4, 5]: 159 10^9/L
RETICULOCYTES CFB (change from baseline) ([4]; subject 003-001, DAY 1): 0 10^9/L
RETICULOCYTES CFB (change from baseline) ([4]; subject 003-001, WEEK 1): −39 10^9/L
RETICULOCYTES Observed ([4]; subject 003-001, WEEK 1): 120 10^9/L
RETICULOCYTES CFB (change from baseline) ([4]; subject 003-001, WEEK 2): −34 10^9/L
RETICULOCYTES Observed ([4]; subject 003-001, WEEK 2): 125 10^9/L
RETICULOCYTES CFB (change from baseline) ([4]; subject 003-001, WEEK 4): −64 10^9/L
RETICULOCYTES Observed ([4]; subject 003-001, WEEK 4): 95 10^9/L
RETICULOCYTES Observed [4, 6]: 250 10^9/L
RETICULOCYTES CFB (change from baseline) ([4]; subject 003-002, DAY 1): 0 10^9/L
RETICULOCYTES CFB (change from baseline) ([4]; subject 003-002, WEEK 1): −106 10^9/L
RETICULOCYTES Observed ([4]; subject 003-002, WEEK 1): 144 10^9/L
RETICULOCYTES CFB (change from baseline) ([4]; subject 003-002, WEEK 2): −85 10^9/L
RETICULOCYTES Observed ([4]; subject 003-002, WEEK 2): 165 10^9/L
RETICULOCYTES CFB (change from baseline) ([4]; subject 003-002, WEEK 4): −118 10^9/L
RETICULOCYTES Observed ([4]; subject 003-002, WEEK 4): 132 10^9/L
